According to patent publication US6784184B2, “5-(arylsulfonyl)-,5-(arylsulfinyl), and 5-(arylsulfanyl)-thiazolidine-2,4-diones useful for inhibition of farnesyl-protein transferase” (Wyeth Holdings Corporation, priority 2001, dated 2004):

Tests used:
FPTase (K-Ras substrate) = FPTase (K-Ras substrate) (UniProt P29702+P49355); assay: in vitro FTase Inhibition Assay, K-Ras as substrate for farnesylation; assay type: biochemical; settings: K-Ras used as substrate for farnesylation
Protocol: (§1) The ability of the compounds of this invention to inhibit FPTase was evaluated in the standard pharmacological in vitro test procedures described below.
(§2) Methods—1. […] 2. Solution #1 is added to FPTase reaction in a volume of […]. 3. Standard reaction mix, […], contains 50 mM Tris (7.5), […], 3 mM MgCl2, 20 mM KCl, 5 mM DTT, 0.2% octyl-B-glucoside, 1% DMSO, […], 10 ng FPTase, and various concentrations of FPTase inhibitors. 4. Incubate for 30-90 min at […] 5. Stop reactions with TCA/SDS (6%/2%), hold at 4° C. for 45-60 min. 6. Filter by manifold or 96 well plate, wash filter 3-5× with TCA (6%). 7. Add scintillant to filters, measure ^3H-FPP incorporation into Ras protein.
(§3) (cpm from precipitated Ras with test compounds)−(background cpm)×100=% inhibition.
(§4) (cpm from precipitated Ras without test compounds)−(background cpm)

FPTase (H-Ras substrate) = FPTase (H-Ras substrate) (UniProt P29702+P49355); assay: in vitro FTase Inhibition Assay, H-Ras as substrate for farnesylation; assay type: biochemical; settings: H-Ras used as substrate for farnesylation
Protocol: as §1, §2, §3, §4

| IC50 (FPTase (K-Ras substrate)) [nM] | IC50 (FPTase (H-Ras substrate)) [nM] | Molecule |
| --- | --- | --- |
| 37 to 800 | 21 to 400 | Cc1ccc(C#CCCCC2(S(=O)(=O)c3ccc(I)cc3)SC(=O)NC2=O)c(C)c1 (stereo not shown) [Example 137, 5-[5-(2,4-Dimethylphenyl)pent-4-ynyl]-5-(4-iodobenzenesulfonyl)-thiazolidine-2,4-dione] |
| 1000 to 3600 | 150 to 300 | 5-[5-(4-Chloro-2-methylphenyl)pent-4-ynyl]-5-(4-trifluoromethoxy-benzenesulfonyl)thiazolidine-2,4-dione [Example 140] |
| 1000 to 4900 | 450 to 500 | COc1ccc(S(=O)(=O)C2(CCCC#Cc3ccc(NC(=O)OC(C)(C)C)cc3C)SC(=O)NC2=O)cc1 (stereo not shown) [Example 149, (4-{5-[5-(4-Methoxybenzenesulfonyl)-2,4-dioxo-thiazolidin-5-yl]pent-1-ynyl}-3-methylphenyl)carbamic Acid tert-Butyl Ester] |
| 1700 | 90 | Cc1ccc([N+](=O)[O-])cc1C#CCCCC1(S(=O)(=O)c2cccc3ccccc23)SC(=O)NC1=O (stereo not shown) [Example 126, 5-[5-(2-Methyl-5-nitrophenyl)-pent-4-ynyl]-5-(naphthalene-1-sulfonyl)-thiazolidine-2,4-dione] |
| 3800 | 150 | COc1ccc(S(=O)(=O)C2(CCCC#Cc3ccc(C#N)cc3)SC(=O)NC2=O)cc1 (stereo not shown) [Example 158, 4-{5-[5-(4-Methoxybenzenesulfonyl)-2,4-dioxo-thiazolidin-5-yl]pent-1-ynyl}benzonitrile] |
| > 10000 | 150 | COc1cccc(S(=O)(=O)C2(CCCC#Cc3cccs3)SC(=O)NC2=O)c1 (stereo not shown) [Example 164, 5-(3-Methoxybenzenesulfonyl)-5-(5-thiophen-2-yl-pent-4-ynyl)-thiazolidine-2,4-dione] |
| 300 to 340 | 21 to 32 | 5-[5-(4-Chloro-2-methylphenyl)-pent-4-ynyl]-5-(4-iodobenzene-sulfonyl)-thiazolidine-2,4-dione [Example 141] |
| 1000 to 2500 | 70 to 150 | COc1ccc(S(=O)(=O)C2(CCCC#Cc3ccc(OC(F)(F)F)cc3)SC(=O)NC2=O)cc1 (stereo not shown) [Example 154, 5-(4-Methoxybenzenesulfonyl)-5-[5-(4-trifluoromethoxyphenyl)pent-4-ynyl]-thiazolidine-2,4-dione] |
| 1000 to 1900 | 43 to 50 | COc1ccc(S(=O)(=O)C2(CCCC#Cc3ccc(C)cc3C)SC(=O)NC2=O)cc1 (stereo not shown) [Example 136, 5-[5-(2,4-Dimethylphenyl)pent-4-ynyl]-5-(4-methoxybenzenesulfonyl)-thiazolidine-2,4-dione] |
| 1400 to 2100 | 65 to 130 | O=C1NC(=O)C(CCCC#Cc2ccc(Cl)cc2)(S(=O)(=O)c2cccc3cccnc23)S1 (stereo not shown) [Example 109, 5-[5-(4-Chlorophenyl)pent-4-ynyl]-5-(quinoline-8-sulfonyl)-thiazolidine-2,4-dione] |
| 110 to 1000 | 10 to 30 | COc1ccc(S(=O)(=O)C2(CCCC#Cc3ccccc3Cl)SC(=O)NC2=O)cc1 (stereo not shown) [Example 101, 5-[5-(2-Chlorophenyl)pent-4-ynyl]-5-(4-methoxybenzenesulfonyl)-thiazolidine-2,4-dione] |
| 230 to 1000 | 4 to 70 | COC(=O)Nc1ccc(C)c(C#CCCCC2(S(=O)(=O)c3ccc(OC)cc3)SC(=O)N(C(=O)OC)C2=O)c1 (stereo not shown) [Example 228, Methyl 5-(5-{5-[(methoxycarbonyl)amino]-2-methylphenyl}pent-4-ynyl)-5-[(4-methoxyphenyl)sulfonyl]-2,4-dioxo-1,3-thiazolidine-3-carboxylate] |
| 320 to 1000 | 23 to 56 | COc1ccc(S(=O)(=O)C2(CCCC#Cc3ccc([N+](=O)[O-])cc3C)SC(=O)NC2=O)cc1 (stereo not shown) [Example 130, 5-(4-Methoxybenzenesulfonyl)-5-[5-(2-methyl-4-nitrophenyl)-pent-4-ynyl]-thiazolidine-2,4-dione] |
| 4700 | 380 | Cc1ccc(S(=O)(=O)C2(CC#Cc3ccc(Oc4ccccc4)cc3)SC(=O)NC2=O)cc1 (stereo not shown) [Example 170, 5-[3-(4-Phenoxyphenyl)prop-2-ynyl]-5-(toluene-4-sulfonyl)-thiazolidine-2,4-dione] |
| 7 to 90 | 2 to 32 | COc1ccc(S(=O)(=O)C2(CCCC#Cc3cc(NC(=O)OCC(C)(C)C)ccc3C)SC(=O)NC2=O)cc1 (stereo not shown) [Example 180, (3-{5-[5-(4-Methoxybenzenesulfonyl)-2,4-dioxothiazolidin-5-yl]pent-1-ynyl}-4-methylphenyl)carbamic Acid Neopentyl Ester] |
| 210 to 400 | 7 to 10 | COc1ccc(S(=O)(=O)C2(CCCC#Cc3cc(NC(=O)OCc4ccc([N+](=O)[O-])cc4)ccc3C)SC(=O)N(C(=O)OCc3ccc([N+](=O)[O-])cc3)C2=O)cc1 (stereo not shown) [Example 227, 4-Nitrobenzyl 5-[(4-methoxyphenyl)sulfonyl]-5-{5-[2-methyl-5-({[(4-nitrobenzyl)oxy]carbonyl}amino)phenyl]pent-4-ynyl}-2,4-dioxo-1,3-thiazolidine-3-carboxylate] |

Second part, the molecule before the results:

| Molecule | IC50 (FPTase (K-Ras substrate)) [nM] | IC50 (FPTase (H-Ras substrate)) [nM] |
| --- | --- | --- |
| COC(=O)Nc1ccc(C)c(C#CCCCC2(S(=O)(=O)c3ccc(OC)cc3)SC(=O)NC2=O)c1 (stereo not shown) [Example 178, (3-{5-[5-(4-Methoxybenzenesulfonyl)-2,4-dioxothiazolidin-5-yl]pent-1-ynyl}-4-methylphenyl)carbamic Acid Methyl Ester] | 10 | 17 to 32 |
| COc1ccc(S(=O)(=O)C2(CCCC#Cc3ccc(Cl)cc3Cl)SC(=O)NC2=O)cc1 (stereo not shown) [Example 117, 5-[5-(2,4-Dichlorophenyl)pent-4-ynyl]-5-(4-methoxybenzenesulfonyl)-thiazolidine-2,4-dione] | 510 to 1000 | 20 to 30 |
| COc1ccc(S(=O)(=O)C2(CCCC#Cc3cc(NC(=O)OCC(C)C)ccc3C)SC(=O)NC2=O)cc1 (stereo not shown) [Example 182, (3-{5-[5-(4-Methoxybenzenesulfonyl)-2,4-dioxothiazolidin-5-yl]pent-1-ynyl}-4-methylphenyl)carbamic Acid Isobutyl] | 32 to 56 | 5 to 10 |
| COC(=O)c1ccc(C)c(C#CCCCC2(S(=O)(=O)c3ccc(OC)cc3)SC(=O)NC2=O)c1 (stereo not shown) [Example 155, 3-{5-[5-(4-Methoxybenzenesulfonyl)-2,4-dioxo-thiazolidin-5-yl]-pent-1-ynyl}-4-methylbenzoic Acid Methyl Ester] | 420 to 440 | 10 to 320 |
| O=C1NC(=O)C(CCCC#Cc2ccc(-n3cccc3)cc2)(S(=O)(=O)c2ccc(I)cc2)S1 (stereo not shown) [Example 162, 5-(4-Iodo-benzenesulfonyl)-5-[5-(4-pyrrol-1-yl-phenyl)pent-4-ynyl]-thiazolidine-2,4-dione] | 4000 | 1210 |
| COc1ccc(S(=O)(=O)C2(CCCC#Cc3cccs3)SC(=O)NC2=O)cc1 (stereo not shown) [Example 166, 5-(4-Methoxybenzenesulfonyl)-5-(5-thiophen-2-yl-pent-4-ynyl)-thiazolidine-2,4-dione] | 5300 | 150 |
| CCCCOc1ccc(S(=O)(=O)C2(CCCC#Cc3ccc(Cl)cc3)SC(=O)NC2=O)cc1 (stereo not shown) [Example 112, 5-(4-Butoxybenzenesulfonyl)-5-[5-(4-chlorophenyl)-pent-4-ynyl]-thiazolidine-2,4-dione] | 1400 to 1500 | 590 to 600 |
| COc1ccc(S(=O)(=O)C2(CCCC#Cc3cc(NC(=O)OCC(C)C)ccc3C)SC(=O)N(C(=O)OCC(C)C)C2=O)cc1 (stereo not shown) [Example 232, Isobutyl 5-(5-{5-[(isobutoxycarbonyl)-amino]-2-methylphenyl}pent-4-ynyl)-5-[(4-methoxyphenyl)sulfonyl]-2,4-dioxo-1,3-thiazolidine-3-carboxylate] | 40 to 640 | 5 to 10 |
| O=C1NC(=O)C(CCCC#Cc2ccc(Cl)cc2)(S(=O)(=O)c2ccc(I)cc2)S1 (stereo not shown) [Example 104, 5-[5-(4-Chlorophenyl)pent-4-ynyl]-5-(4-iodobenzenesulfonyl)-thiazolidine-2,4-dione] | 230 to 900 | 30 to 54 |
| O=C1NC(=O)C(CCCC#Cc2ccc(Cl)cc2)(S(=O)(=O)c2ccc(Oc3ccccc3)cc2)S1 (stereo not shown) [Example 106, 5-[5-(4-Chlorophenyl)pent-4-ynyl]-5-(4-phenoxybenzenesulfonyl)-thiazolidine-2,4-dione] | 1300 to 1700 | 230 to 250 |
| COc1ccc(S(=O)(=O)C2(CCCC#Cc3cc(NC(=O)Oc4ccc(Cl)cc4)ccc3C)SC(=O)NC2=O)cc1 (stereo not shown) [Example 177, (3-{5-[5-(4-Methoxybenzenesulfonyl)-2,4-dioxothiazolidin-5-yl]pent-1-ynyl}-4-methylphenyl)carbamic Acid 4-Chloro-phenyl Ester] | 86 to 100 | 11 to 32 |
| Cc1cc(Br)ccc1C#CCCCC1(S(=O)(=O)c2ccc(I)cc2)SC(=O)NC1=O (stereo not shown) [Example 144, 5-[5-(4-Bromo-2-methylphenyl)pent-4-ynyl]-5-(4-iodobenzenesulfonyl)-thiazolidine-2,4-dione] | 320 to 550 | 40 to 41 |
| COc1ccc(S(=O)(=O)C2(CCCC#Cc3cc(NC(=O)OC(C)C)ccc3C)SC(=O)NC2=O)cc1 (stereo not shown) [Example 179, (3-{5-[5-(4-Methoxybenzenesulfonyl)-2,4-dioxothiazolidin-5-yl]pent-1-ynyl}-4-methylphenyl)carbamic Acid Isopropyl Ester] | 5 to 70 | 2 to 32 |
